As a reminder, the IC50 is the concentration at which inhibition is half-maximal. Read a low IC50 as greater potency.

Test [1] concerns the target c-Cbl (Homo sapiens (Human), UniProt P22681). The test can be described thus: C-Cbl LCK Ub TR-FRET assay (C-cbl Lck HTRF). It counts as biochemical. The essentials: (§1)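 Detection reagents added, brief spin, 20 min RT. IC50 fit normalized to no-LCK (low) and DMSO (high) controls.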
(Time-resolved FRET reads energy transfer from a long-lived donor to a nearby acceptor.)

In test [2] the target is Cbl-b (Homo sapiens (Human), UniProt Q13191). The test can be described thus: Cbl-b LCK Ub TR-FRET assay (Cbl-b Lck HTRF). It counts as biochemical. The conditions noted are these: for IC50: Cbl-b LCK Ub TR-FRET; for (fold-selectivity) Cbl-b and C-Cbl Selectivity / fold-selectivity (Cbl-b over C-cbl): ratio C-cbl Lck HTRF IC50 / Cbl-b Lck HTRF IC50. The essentials:
as §1

Cbl-b, sequence (Q13191 40-426): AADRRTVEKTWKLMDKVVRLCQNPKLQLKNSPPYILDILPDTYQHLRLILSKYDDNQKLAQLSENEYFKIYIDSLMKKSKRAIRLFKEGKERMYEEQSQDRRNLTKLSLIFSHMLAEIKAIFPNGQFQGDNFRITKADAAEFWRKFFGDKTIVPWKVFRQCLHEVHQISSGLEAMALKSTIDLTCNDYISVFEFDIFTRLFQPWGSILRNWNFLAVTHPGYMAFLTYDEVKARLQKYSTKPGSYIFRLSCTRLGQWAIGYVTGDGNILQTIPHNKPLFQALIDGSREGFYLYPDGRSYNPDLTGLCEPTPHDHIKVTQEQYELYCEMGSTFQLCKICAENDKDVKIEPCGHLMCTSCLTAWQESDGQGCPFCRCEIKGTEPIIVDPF
c-Cbl, sequence (P22681 47-435): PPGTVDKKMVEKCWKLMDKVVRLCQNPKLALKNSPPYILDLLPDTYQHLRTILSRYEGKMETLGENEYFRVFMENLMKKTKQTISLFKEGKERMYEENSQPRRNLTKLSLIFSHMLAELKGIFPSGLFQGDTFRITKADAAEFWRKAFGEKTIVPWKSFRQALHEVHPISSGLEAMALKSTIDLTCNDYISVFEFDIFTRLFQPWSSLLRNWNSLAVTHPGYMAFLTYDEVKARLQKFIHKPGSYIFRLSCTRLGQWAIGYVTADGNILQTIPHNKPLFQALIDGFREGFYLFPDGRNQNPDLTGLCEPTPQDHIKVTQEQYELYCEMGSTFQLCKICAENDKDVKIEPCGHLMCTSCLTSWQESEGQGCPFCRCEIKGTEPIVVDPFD

Turning to `Cn1cnnc1[C@@H](c1cccc(N2Cc3c(cc(CNCC4(C)CC4)cc3C(F)(F)F)C2=O)c1)C1COC1` (single isomer, unassigned) [Compound 465], the IC50 was 12 nM in test [1] and 6.6 nM in test [2] (Example 121). The “(fold-selectivity) Cbl-b and C-Cbl Selectivity” value in test [2] stood at 1.8x.
On the same counts, the results for `Cn1cnnc1[C@@H](c1cccc(N2Cc3c(cc(CN[C@@H]4C[C@@H]5C[C@@H]5C4)cc3C(F)(F)F)C2=O)c1)C1COC1` (single isomer, unassigned) [Compound 469] are 4.5 nM, 5.3 nM and 0.85x.
Turning to `Cn1cnnc1[C@@H](c1cccc(N2Cc3c(cc(CN[C@H]4[C@@H]5COC[C@@H]54)cc3C(F)(F)F)C2=O)c1)C1COC1` (single isomer, unassigned) [Compound 472], the results for the IC50 in test [1] and in test [2] (Example 121) were 42 nM and 13 nM, respectively. For the same molecule, the “(fold-selectivity) Cbl-b and C-Cbl Selectivity” value in test [2] is given as 3.2x.
Regarding `CCOc1cc([C@]2(c3nncn3C)C[C@@H](C)C2)cc(N2Cc3c(cc(CNC4(C)CCC4)cc3C(F)(F)F)C2=O)n1` [Compound 3, 2-(6-ethoxy-4-((1s,3s)-3-methyl-1-(4-methyl-4H-1,2,4-triazol-3-yl)cyclobutyl)pyridin-2-yl)-6-(((1-methylcyclobutyl)amino)methyl)-4-(trifluoromethyl)isoindolin-1-one], the IC50 in test [1] is 2.5 nM. Further, in test [2], the IC50 stood at 3.6 nM and the “fold-selectivity (Cbl-b over C-cbl)” value is given as “(0.69x)”.
On the same counts, the results for `CCOc1cc([C@]2(c3nncn3C)C[C@H](C)C2)cc(N2Cc3c(cc(CNC4(C)CCC4)cc3C(F)(F)F)C2=O)n1` [Compound 4, 2-(6-ethoxy-4-((1r,3r)-3-methyl-1-(4-methyl-4H-1,2,4-triazol-3-yl)cyclobutyl)pyridin-2-yl)-6-(((1-methylcyclobutyl)amino)methyl)-4-(trifluoromethyl)isoindolin-1-one] are 6 nM, 6.6 nM and “(0.91x)”.
`CCNc1cc([C@]2(c3nncn3C)C[C@@H](C)C2)cc(N2Cc3c(cc(CNC4(C)CCC4)cc3C(F)(F)F)C2=O)n1` [Compound 5, 2-(6-(ethylamino)-4-((1s,3s)-3-methyl-1-(4-methyl-4H-1,2,4-triazol-3-yl)cyclobutyl)-pyridin-2-yl)-6-(((1-methylcyclobutyl)amino)methyl)-4-(trifluoromethyl)isoindolin-1-one] displayed a half-maximal inhibitory concentration (IC50) in test [1] of 4.5 nM. For the same molecule, in test [2], the IC50 is 7.1 nM and the “fold-selectivity (Cbl-b over C-cbl)” value is “(0.64x)”.
As for `CCNc1cc([C@]2(c3nncn3C)C[C@H](C)C2)cc(N2Cc3c(cc(CNC4(C)CCC4)cc3C(F)(F)F)C2=O)n1` [Compound 6, 2-(6-(ethylamino)-4-((1r,3r)-3-methyl-1-(4-methyl-4H-1,2,4-triazol-3-yl)cyclobutyl)-pyridin-2-yl)-6-(((1-methylcyclobutyl)amino)methyl)-4-(trifluoromethyl)isoindolin-1-one], the 50% inhibitory concentration (IC50) in test [1] turned out to be 6.2 nM. Also, in test [2], inhibition was half-maximal at 11 nM (IC50) and the “fold-selectivity (Cbl-b over C-cbl)” value is “(0.56x)”.
On the same counts, the results for `CO[C@]1(C)C[C@](c2cccc(N3Cc4c(cc(CNC5(C)CCC5)cc4C(F)(F)F)C3=O)c2)(c2nncn2C)C1` [Compound 29, 2-(3-((1s,3s)-3-methoxy-3-methyl-1-(4-methyl-4H-1,2,4-triazol-3-yl)cyclobutyl)phenyl)-6-(((1-methylcyclobutyl)amino)methyl)-4-(trifluoromethyl)isoindolin-1-one] are 166 nM, 83 nM and “(2.0x)”.
On the same counts, the results for `Cn1cnnc1[C@]1(c2cccc(N3Cc4c(cc(CNC5(C)CCC5)cc4C(F)(F)F)C3=O)c2)C[C@@](C)(F)C1` [Compound 31, 2-(3-((1r,3r)-3-fluoro-3-methyl-1-(4-methyl-4H-1,2,4-triazol-3-yl)cyclobutyl)phenyl)-6-(((1-methylcyclobutyl)amino)methyl)-4-(trifluoromethyl)isoindolin-1-one] are 33 nM, 15 nM and “(2.2x)”.
On the same counts, the results for `Cn1cnnc1[C@]1(c2cccc(N3Cc4c(cc(CNC5(C)CCC5)cc4C(F)(F)F)C3=O)c2)C[C@@H](F)C1` [Compound 36, 2-(3-((1r,3r)-3-fluoro-1-(4-methyl-4H-1,2,4-triazol-3-yl)cyclobutyl)phenyl)-6-(((1-methylcyclobutyl)amino)methyl)-4-(trifluoromethyl)isoindolin-1-one] are 12 nM, 11 nM and “(1.1x)”.
Turning to `Cn1cnnc1C1(c2cccc(N3Cc4c(cc(CNC5(C)CCC5)cc4C(F)(F)F)C3=O)c2)CC(C)(C)C1` [Compound 39, 2-(3-(3,3-dimethyl-1-(4-methyl-4H-1,2,4-triazol-3-yl)cyclobutyl)phenyl)-6-(((1-methylcyclobutyl)amino)methyl)-4-(trifluoromethyl)-isoindolin-1-one], the IC50 in test [1] is 17 nM. In test [2], the IC50 stood at 7.2 nM and the “fold-selectivity (Cbl-b over C-cbl)” value is “(2.4x)”.
With `Cn1cnnc1C1(c2cccc(N3Cc4c(cc(CNC5(C)CCC5)cc4C(F)(F)F)C3=O)c2)CC2(CCC2)C1` [Compound 40], the figures for the IC50 in test [1] and in test [2] were 28 nM and 8.9 nM, respectively. Further, the “fold-selectivity (Cbl-b over C-cbl)” value in test [2] is “(3.2x)”.
`CC(C)[C@H]1CN(C)CCN1Cc1cc2c(c(C(F)(F)F)c1)CN(c1cccc(C3(c4nncn4C)CC4(COC4)C3)c1)C2=O` [Compound 41, (S)-6-((2-isopropyl-4-methylpiperazin-1-yl)methyl)-2-(3-(6-(4-methyl-4H-1,2,4-triazol-3-yl)-2-oxaspiro[3.3]heptan-6-yl)phenyl)-4-(trifluoromethyl)isoindolin-1-one] gave an IC50 in test [1] of 59 nM. Besides, in test [2], it took 21 nM to reach half-maximal inhibition (IC50) and the “fold-selectivity (Cbl-b over C-cbl)” value is “(2.8x)”.
On the same counts, the results for `Cn1cnnc1[C@H](OC1CCC1)c1cccc(N2Cc3c(cc(CNC4(C)CCC4)cc3C(F)(F)F)C2=O)c1` [Compound 47, (R)-2-(3-(cyclobutoxy(4-methyl-4H-1,2,4-triazol-3-yl)methyl)phenyl)-6-(((1-methylcyclobutyl)amino)methyl)-4-(trifluoromethyl)isoindolin-1-one] are 2300 nM, 1200 nM and “(1.9x)”.
For the molecule `CCc1cc(C2(c3nncn3C)CC(F)(F)C2)cc(N2Cc3c(cc(CNC4(C)CCC4)cc3C(F)(F)F)C2=O)n1` [Compound 59, 2-(4-(3,3-difluoro-1-(4-methyl-4H-1,2,4-triazol-3-yl)cyclobutyl)-6-ethylpyridin-2-yl)-6-(((1-methylcyclobutyl)amino)methyl)-4-(trifluoromethyl)isoindolin-1-one], in test [1], the midpoint of inhibition, the IC50, lay at 17 nM. In addition, in test [2], the midpoint of inhibition, the IC50, lay at 18 nM and the “fold-selectivity (Cbl-b over C-cbl)” value is “(0.96x)”.
On the same counts, the results for `Cc1cc(C2(c3nncn3C)CC(F)(F)C2)cc(N2Cc3c(cc(CNC4(C)CCC4)cc3C(F)(F)F)C2=O)n1` [Compound 60, 2-(4-(3,3-difluoro-1-(4-methyl-4H-1,2,4-triazol-3-yl)cyclobutyl)-6-methylpyridin-2-yl)-6-(((1-methylcyclobutyl)amino)methyl)-4-(trifluoromethyl)isoindolin-1-one] are 80 nM, 110 nM and “(0.73x)”.
On the same counts, the results for `CCOc1cc([C@]2(c3nncn3C)C[C@@H](OC)C2)cc(N2Cc3c(cc(CNC4(C)CCC4)cc3C(F)(F)F)C2=O)n1` [Compound 76, 2-(6-ethoxy-4-((1S,3S)-3-methoxy-1-(4-methyl-4H-1,2,4-triazol-3-yl)cyclobutyl)pyridin-2-yl)-6-(((1-methylcyclobutyl)amino)methyl)-4-(trifluoromethyl)isoindolin-1-one] are 6.4 nM, 6.4 nM and “(1.0x)”.
Consider `CCOc1cc([C@]2(c3nncn3C)C[C@H](OC)C2)cc(N2Cc3c(cc(CNC4(C)CCC4)cc3C(F)(F)F)C2=O)n1` [Compound 77, 2-(6-ethoxy-4-((1R,3R)-3-methoxy-1-(4-methyl-4H-1,2,4-triazol-3-yl)cyclobutyl)pyridin-2-yl)-6-(((1-methylcyclobutyl)amino)methyl)-4-(trifluoromethyl)isoindolin-1-one], for which the IC50 in test [1] and in test [2] was 8.2 nM each time. In addition, in test [2], the “fold-selectivity (Cbl-b over C-cbl)” value was “(1.0x)”.
As to `CO[C@H]1C[C@@](c2cc(OC3CCCC3)nc(N3Cc4c(cc(CNC5(C)CCC5)cc4C(F)(F)F)C3=O)c2)(c2nncn2C)C1` [Compound 78, 2-(6-(cyclopentyloxy)-4-((1S,3S)-3-methoxy-1-(4-methyl-4H-1,2,4-triazol-3-yl)cyclobutyl)pyriidn-2-yl)-6-(((1-methylcyclobutyl)amino)methyl)-4-(trifluoromethyl)isoindolin-1-one], in test [1], the IC50 came out at 70 nM. Further, in test [2], the IC50 is 14 nM and the “fold-selectivity (Cbl-b over C-cbl)” value is recorded as “(5.0x)”.
On the same counts, the results for `CO[C@H]1C[C@](c2cc(OC3CCCC3)nc(N3Cc4c(cc(CNC5(C)CCC5)cc4C(F)(F)F)C3=O)c2)(c2nncn2C)C1` [Compound 79, 2-(6-(cyclopentyloxy)-4-((1R,3R)-3-methoxy-1-(4-methyl-4H-1,2,4-triazol-3-yl)cyclobutyl)pyridin-2-yl)-6-(((1-methylcyclobutyl)amino)methyl)-4-(trifluoromethyl)isoindolin-1-one] are 237 nM, 32 nM and “(7.4x)”.
On the same counts, the results for `Cn1cnnc1C1(c2cccc(N3Cc4c(cc(CNC5(C)CCC5)cc4C(F)(F)F)C3=O)c2)CC2(CC(=O)C2)C1` [Compound 92, 2-(3-(2-(4-methyl-4H-1,2,4-triazol-3-yl)-6-oxospiro[3.3]heptan-2-yl)phenyl)-6-(((1-methylcyclobutyl)amino)methyl)-4-(trifluoromethyl)isoindolin-1-one] are 29 nM, 13 nM and 2.2x.

The values above are taken from US12187709B2 (Genentech, Inc., priority 2021, dated 2025).
